Data taken from US12209074B2, “SHP2 phosphatase allosteric inhibitor” (BEIJING SHENOGEN PHARMA GROUP LTD., priority 2019, dated 2025).

Legend:
hERG channel = hERG channel (Homo sapiens (Human), UniProt Q12809); assay: hERG inhibitory activity, whole cell patch clamp in hERG-transfected HEK293 cells; assay type: cell-based; conditions: HEK293 cells transfected with hERG, tail current, tested at 30, 10, 2, 0.5, 0.1 μM
Procedure: Patch Clamp Amplifier System (Multiclamp 700B Amplifier) (AXON), Olympus microscope (Olympus IX51/71/73), and MP285 micromanipulator were used.
HEK293 cell line for transfecting hERG was purchased from Invitrogen Company. The cells were grown in the culture medium with 85% DMEM, 10% fetal bovine serum, 0.1 mM NEAA, 25 mM HEPES buffer, 100 U/mL penicillin-streptomycin, 5 μg/mL blasticidin and 400 μg/mL G418 geneticin.
The cells were passaged three times a week and digested with TrypLE Express to maintain a fusion degree of about 40% to 80%. Before testing, the cells were seeded at the density of 5*10^5 cells/petri dish with a diameter of 6 cm and the cells were induced with 1 μg/ml doxycycline for 48 hours.
The test concentration of the compound solution was 30, 10, 2, 0.5, 0.1 μM after 1000-fold dilution and the final concentration of DMSO was in the range of 0.1%.
The manipulator was adjusted to move the electrode tip to the cell surface to form a high sealing. Liquid connection potential and fast capacitance were compensated, and the cell membrane was broken to form a whole cell recording mode. The membrane potential was set as −60 mV to ensure that the HERG channel was not opened. Cslow on the amplifier was used to eliminate the peak of capacity current. Holding voltage was set as […]. The leakage current test was performed at −80 mV for 500 ms. +30 mV was depolarized for 4.8 seconds, and HERG channel was activated. The voltage was restored to −50 mV for 5.2 seconds, and the tail current was observed. Peak current suppression=[1−(peak tail currentinhibitor−peak tail currentpositive control)/(peak tail currentblank−peak tail currentpositive control)]*100
The dose response curve of hERG current inhibition rate versus the concentration of the tested compound was plotted by using Graphpad Prism 8.0 software.

[1] = test system: Human non-small cell lung cancer NCI-H358; assay: Cell proliferation assay (CellTiter-Glu) in NCI-H358; assay type: cell-based; conditions: 5 days, NCI-H358 cells, cell viability by CellTiter-Glu, compound 0.3 nM-2 μM, medium and compound renewed after 3 days
Procedure: Cell proliferation inhibition screening method was established by CellTier-Glu® test reagent from Promega.
Human non-small cell lung cancer NCI-H358 was cultured by RPMI-1640 (Gibco®) medium with 10% fetal bovine serum (Gibco®) at 37° C., 95% air and 5% CO2, in 25 cm^2 or 75 cm^2 plastic culture bottle ((Nunc®) and passaged 2-3 times a week.
The cells were seeded on the 96 well cell culture plate (Nunc®) at the density of 2*10^3/well, 90 μL/well, and cultured at 37° C., 95% air and 5% CO2. The compound to be tested was added 24 hours later: the compound was diluted 3 times with DMSO from the concentration of 2 mM compound (dissolved in DMSO). […] 10 μL of the compound diluted by culture medium was added into the culture plate seeded with cells. The final concentration of DMSO in cell culture medium was 0.1%, and the final concentration of test compound was 0.3 nM-2 μM. The cells were incubated at 37° C. for 3 days. The culture medium was substituted with 90 μL/well fresh complete medium. According to the above diluting method of compounds, the compound to be tested was added.
After 5 days, cell viability was tested by CellTiter-Glu (Promega) kit, and finally, the semi-inhibitory concentration of compounds on cell proliferation, i.e. IC50 was calculated by Prism program.

SHP2 = SHP2 (Homo sapiens (Human), UniProt Q06124); assay: Detection of in vitro SHP2 protein activity by DiFMUP fluorescence; assay type: biochemical; conditions: read-out: Phosphatase activity SHP2 IC50; DiFMUP substrate, fluorescence Ex340/Em450, 60 min pre-incubation with polypeptide; read-out: Proteinase activity SHP2 IC50
SHP2, sequence (Q06124 whole entry, species assumed): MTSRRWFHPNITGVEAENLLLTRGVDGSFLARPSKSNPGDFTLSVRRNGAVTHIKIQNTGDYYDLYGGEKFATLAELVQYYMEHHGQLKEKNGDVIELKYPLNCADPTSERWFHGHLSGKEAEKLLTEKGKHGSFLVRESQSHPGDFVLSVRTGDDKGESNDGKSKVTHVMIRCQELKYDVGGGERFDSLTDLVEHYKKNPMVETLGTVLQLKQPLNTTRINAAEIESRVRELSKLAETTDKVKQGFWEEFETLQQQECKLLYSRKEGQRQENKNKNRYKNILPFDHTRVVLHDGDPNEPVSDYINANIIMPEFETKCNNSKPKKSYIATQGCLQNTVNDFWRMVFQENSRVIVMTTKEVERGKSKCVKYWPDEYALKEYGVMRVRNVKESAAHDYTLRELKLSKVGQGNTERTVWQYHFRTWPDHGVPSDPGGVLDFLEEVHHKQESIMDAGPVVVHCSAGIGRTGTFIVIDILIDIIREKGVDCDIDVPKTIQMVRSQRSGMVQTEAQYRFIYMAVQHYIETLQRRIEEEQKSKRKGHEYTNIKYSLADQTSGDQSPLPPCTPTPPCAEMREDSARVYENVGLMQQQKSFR
Description: The screening method of SHP2 protein activity was established by fluorescence detection. The basic principle is: SHP2 as phosphatase can catalyze the dephosphorization of DiFMUP to form DiFMU and free phosphate groups. The product DiFMU emits fluorescence under 340 nm excitation, and 450 nm emission is collected. If the binding of small molecule compounds with SHP2 can inhibit the activity of SHP2 enzyme, the 450 nm emission light detected will be weakened, and the activity of SHP2 enzyme will be finally reflected by the intensity of fluorescence value.
The specific operation was as follows: the 10 mM compound stock solution was diluted to 1 mM with DMSO, and then diluted 3 times with DMSO. 95 μL reaction buffer (60 mM HEPES), 75 mM NaCl, 75 mM KCl, 1 mM EDTA, 5 mM DTT, 1 μL gradient diluted compound, 2 μL SHP2 (concentration was 2 μg/μL) and 1 μL polypeptide (concentration was 50 mM) were added into each well of a 96 well flat clear bottom black plate (costar, 3603). The above test mixture was incubated at room temperature in dark for 60 minutes. Then 2 μL of 10 mM DiFMUP was added into each well, and was incubated at room temperature for 30 minutes. Fluorescence value was determined in the enzyme reader at Ex340/Em450. IC50 of the compounds was obtained by the data analysis software Prism.

hERG channel, sequence (Q12809 whole entry): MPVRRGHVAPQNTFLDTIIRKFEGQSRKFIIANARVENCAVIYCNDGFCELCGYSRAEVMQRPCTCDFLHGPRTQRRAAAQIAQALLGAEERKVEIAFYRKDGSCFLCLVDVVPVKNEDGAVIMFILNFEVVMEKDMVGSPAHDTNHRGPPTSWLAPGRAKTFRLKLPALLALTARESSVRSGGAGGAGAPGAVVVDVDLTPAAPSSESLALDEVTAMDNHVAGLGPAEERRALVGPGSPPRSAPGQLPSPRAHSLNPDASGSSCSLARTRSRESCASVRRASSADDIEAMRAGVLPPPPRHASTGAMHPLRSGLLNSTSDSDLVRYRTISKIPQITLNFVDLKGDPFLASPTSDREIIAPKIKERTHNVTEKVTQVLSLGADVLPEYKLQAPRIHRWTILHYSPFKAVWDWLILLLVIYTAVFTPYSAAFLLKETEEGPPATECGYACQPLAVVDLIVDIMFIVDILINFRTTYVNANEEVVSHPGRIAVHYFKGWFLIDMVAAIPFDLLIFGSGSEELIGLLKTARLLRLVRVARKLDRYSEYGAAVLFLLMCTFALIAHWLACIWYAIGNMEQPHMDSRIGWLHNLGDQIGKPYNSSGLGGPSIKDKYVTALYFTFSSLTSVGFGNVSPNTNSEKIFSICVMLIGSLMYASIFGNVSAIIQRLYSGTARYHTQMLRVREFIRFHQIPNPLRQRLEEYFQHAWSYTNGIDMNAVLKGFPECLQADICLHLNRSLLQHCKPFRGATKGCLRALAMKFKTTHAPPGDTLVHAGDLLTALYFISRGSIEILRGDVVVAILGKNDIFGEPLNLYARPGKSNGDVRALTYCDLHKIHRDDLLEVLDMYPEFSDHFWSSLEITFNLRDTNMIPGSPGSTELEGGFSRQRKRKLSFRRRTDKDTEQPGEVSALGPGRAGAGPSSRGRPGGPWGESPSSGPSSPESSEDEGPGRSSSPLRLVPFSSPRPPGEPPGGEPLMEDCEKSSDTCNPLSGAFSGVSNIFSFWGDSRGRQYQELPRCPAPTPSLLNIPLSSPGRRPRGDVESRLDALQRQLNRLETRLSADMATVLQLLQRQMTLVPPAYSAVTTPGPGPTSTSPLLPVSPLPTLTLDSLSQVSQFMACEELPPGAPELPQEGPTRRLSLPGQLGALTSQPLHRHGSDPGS

| Compound | IC50 (hERG channel) | IC50 [1] | IC50 (SHP2) |
| --- | --- | --- | --- |
| Cc1nc(N2CCC3(CC2)Cc2ccccc2[C@H]3N)c(CO)nc1-c1cccc(Cl)c1Cl [Compound 1, (S)-(3-(1-amino-1,3-dihydrospiro[indene-2,4′-piperidin]-1′-yl)-6-(2,3-dichlorophenyl)-5-methylpyrazin-2-yl)methanol] | < 100 nM | 88 nM | 9 nM |
| Cc1nc(N2CCC3(CC2)Cc2ccc(C#N)cc2[C@H]3N)c(CO)nc1-c1cccc(Cl)c1Cl [Compound 2, (S)-1-amino-1′-(5-(2,3-dichlorophenyl)-3-(hydroxymethyl)-6-methylpyrazin-2-yl)-1,3-dihydrospiro[indene-2,4′-piperidine]-6-carbonitrile] |  | 84 nM | 35 nM |
| Cc1nc(N2CCC3(CC2)Cc2ncccc2[C@H]3N)c(CO)nc1-c1cccc(Cl)c1Cl [Compound 13, (S)-(3-(5-amino-5,7-dihydrospiro[cyclopenta[b]pyridine-6,4′-piperidin]-1′-yl)-6-(2,3-dichlorophenyl)-5-methylpyrazin-2-yl)methanol] | < 100 nM | 1.6 nM |  |
| Cc1ccc2c(c1)[C@@H](N)C1(CCN(c3nc(C)c(-c4ccnc(Cl)c4Cl)nc3CO)CC1)C2 [Compound 21] | 3030 nM | 11 nM |  |
| Cc1nc(N2CCC3(CC2)Cc2ccccc2[C@H]3N)c(CO)nc1-c1cc(N)nc(Cl)c1Cl [Compound 47] | 4290 nM | 30 nM |  |
| Cc1cnc2c(c1)[C@@H](N)C1(CCN(c3nc(C)c(-c4ccnc(Cl)c4Cl)nc3CO)CC1)C2 [Compound 49] | 1800 nM | 28 nM |  |
| Cc1cnc2c(c1)[C@@H](N)C1(CCN(c3nc(C)c(-c4ccnc(C)c4Cl)nc3CO)CC1)C2 [Compound 60] |  | 75 nM |  |
| Cc1cncc(-c2nc(CO)c(N3CCC4(CC3)Cc3ccccc3[C@H]4N)nc2C)c1Cl [Compound 61] |  | 63 nM |  |
| Cc1nc(N2CCC3(CC2)Cc2ccccc2[C@H]3N)c(CO)nc1-c1ccnc(C(F)(F)F)c1Cl [Compound 62] | 4230 nM | 15 nM |  |
| Cc1ccc2c(c1)[C@@H](N)C1(CCN(c3nc(C)c(-c4cc(N)nc(Cl)c4Cl)nc3CO)CC1)C2 [Compound 63] |  | 40 nM |  |
| Cc1cnc2c(c1)[C@@H](N)C1(CCN(c3nc(C)c(-c4cc(N)nc(Cl)c4Cl)nc3CO)CC1)C2 [Compound 64] | 6130 nM | 22 nM |  |
| Cc1cnc2c(c1)[C@@H](N)C1(CCN(c3nc(C)c(-c4ccnc(Cl)c4Cl)nc3C(C)O)CC1)C2 (stereo partly drawn) [Compound 68] |  | 530 nM |  |
| COc1ccc2c(c1)[C@@H](N)C1(CCN(c3nc(C)c(-c4ccnc(Cl)c4Cl)nc3CO)CC1)C2 [Compound 72] | 2590 nM | 65.9 nM |  |
| COc1nccc(-c2nc(CO)c(N3CCC4(CC3)Cc3ncc(C)cc3[C@H]4N)nc2C)c1Cl [Compound 76] | 2110 nM | 25 nM |  |
| Cc1nc(N2CCC3(CC2)Cc2ccccc2[C@H]3N)c(CO)nc1-c1ccnc(C#N)c1Cl [Compound 77] | 620 nM | 33 nM |  |
